Patent publication US9187474B2, “Raf inhibitor compounds” (Deciphera Pharmaceuticals, LLC, priority 2012, dated 2015)
Where a name gives a salt, the structure may show the parent alone.

Key:
[1] = test system: phospho-ERK in HCT-116 cells; assay: HCT-116 cell pERK assay (AlphaScreen SureFire); format: cell-based; details: Homo sapiens; HCT-116 cells, B-Raf wild type, K-Ras mutation; 4 hours; read-out: IC50 reduction of phospho-ERK signal
Protocol: Examples of Formula I are tested against HCT-116 cells harboring wild type B-Raf and K-Ras mutation. The phospho-ERK activities are evaluated as described below.
HCT-116 cells (catalog #CCL-247) are obtained from the American Type Culture Collection (ATCC, Manassas, Va.). Briefly, cells are grown in McCoy's 5A supplemented with 10% characterized fetal bovine serum (Invitrogen, Carlsbad, Calif.), and 1% Penicillin/Streptomycin/L-Glutamine at 37 degrees Celsius, 5% CO2, and 95% humidity. Cells are allowed to expand until reaching 75-90% confluency at which point they are subcultured or harvested for assay use. HCT-116 cells suspended in complete media are added to 384-well tissue culture treated plates (3×10^5 cells/mL; 7,500 cells per well). The cells are incubated overnight at 37 degrees Celsius, 5% CO2, and 95% humidity. Next, test compound or DMSO diluted in complete media is added to the wells (0.25% final DMSO concentration). The plates are then incubated for 4 hours at 37 degrees Celsius, 5% CO2, and 95% humidity. Following compound incubation, the cells are lysed at 4° C. for 20 minutes with shaking Cell lysates are centrifuged and the supernatant is transferred to a new plate. An aliquot of each lysate is transferred to a white 384-well assay plate. Using the AlphaScreen SureFire pERK kit (Perkin-Elmer, Waltham, Mass.), an acceptor bead mixture is added to each well and incubated for 2 h at room temperature in the dark. A donor bead mixture is then added to each well and incubated for 2 h at room temperature in the dark. Plates are read using a Synergy2 plate reader (Biotek, Winooski, Vt.) in Plate Mode with Timing Control. Read: (F)1: excitation: 680/30 nm, emission: Plug. 2: Excitation: Plug, emission: 570/100 nm. Top mirror 635 nm. Data is analyzed using Prism software (Graphpad, San Diego, Calif.) to calculate IC50 values and Excel software (Microsoft, Redmond, Wash.) to calculate stimulation compared to control.

A375res cells [2] = test system: A375res cells
From the text: (§1) A vemurafenib-resistant cell line is generated by chronic treatment of the human melanoma cell line A375 (ATCC) harboring the B-Raf V600E mutation with increasing concentrations PLX4720.

A375res cells [3] = assay: Proliferation assay in vemurafenib-resistant A375res melanoma cells; details: Homo sapiens, 72 h, read-out: absolute IC50 values
From the text: as §1

[4] = test system: phospho-ERK in A375 (B-Raf V600E) xenograft; assay: A375 mouse xenograft pharmacodynamic assay (tumor pERK by ELISA); format: in vivo, mice; details: A-375, 20 mg/kg oral, 2 h post dose, vs vehicle, read-out: Measured pERK inhibition 2 h post dose
Protocol: To evaluate the in vivo pharmacodynamic (PD) effects of compounds of Formula I, an A375 (B-Raf V600E) xenograft model is employed. Briefly, 10×10^6 A375 tumor cells (ATCC) are prepared in a 1:1 matrigel mix (0.2 mL total volume) and implanted by subcutaneous injection in hind leg of nude female mice. A total of 4 mice each for each dosing group are employed. Treatment is initiated with oral administration (gavage) of test compound or vehicle (20% captisol, 25 mM phosphate, pH2.0) in 0.2 mL volume when average tumor size reaches approximately 300 mg. After a fixed time interval, the tumors are harvested and the phospho-ERK levels are measured by ELISA (Enzyme-linked immunosorbent assay). Treated groups are compared to the vehicle control group to calculate % inhibition.

| IC50 [1] | IC50 shift A375 to A375res (A375res cells [2]) | IC50 (A375res cells [3]) | SMILES | inhibition in vivo at 20 mg/kg [4] |
| --- | --- | --- | --- | --- |
| 2 to 96 nM | 0.5-4.9 fold | 9 to 504 nM | CNc1cc2nc(C)c(-c3cc(NC(=O)NCCC4(C)CC4)c(F)cc3F)cc2cn1 [Example 94, 1-(2,4-difluoro-5-(2-methyl-7-(methylamino)-1,6-naphthyridin-3-yl)phenyl)-3-(2-(1-methylcyclopropyl)ethyl)urea hydrochloride] | – |
| 2 to 96 nM | – | 9 to 504 nM | Cc1cc(F)c(NC(=O)NCCC(C)(C)C)cc1-c1cc2cnc(N)cc2nc1C [Example 129, 1-(5-(7-amino-2-methyl-1,6-naphthyridin-3-yl)-2-fluoro-4-methylphenyl)-3-(3,3-dimethylbutyl)urea hydrochloride] | – |
| – | 0.5-4.9 fold | 9 to 504 nM | CNc1cc2nc(C)c(-c3cc(NC(=O)NCCC(C)(C)C)c(F)cc3C)cc2cn1 [Example 17, 1-(3,3-dimethylbutyl)-3-(2-fluoro-4-methyl-5-(2-methyl-7-(methylamino)-1,6-naphthyridin-3-yl)phenyl)urea] | 89% |
| 2 to 96 nM | 0.5-4.9 fold | 9 to 504 nM | CNc1cc2nc(C)c(-c3cc(NC(=O)NCCC4(C(F)(F)F)CC4)c(F)cc3C)cc2cn1 [Example 23, 1-(2-fluoro-4-methyl-5-(2-methyl-7-(methylamino)-1,6-naphthyridin-3-yl)phenyl)-3-(2-(1-(trifluoromethyl)cyclopropyl)ethyl)urea hydrochloride] | – |
| 2 to 96 nM | 0.5-4.9 fold | 9 to 504 nM | Cc1cc(F)c(NC(=O)NCCC(C)(C)F)cc1-c1cc2cnc(NC=O)cc2nc1C [Example 125, N-(3-(4-fluoro-5-(3-(3-fluoro-3-methylbutyl)ureido)-2-methylphenyl)-2-methyl-1,6-naphthyridin-7-yl)formamide hydrochloride] | – |
| 2 to 96 nM | 0.5-4.9 fold | 9 to 504 nM | CNc1cc2nc(C)c(-c3cc(NC(=O)NC4CCC(F)(F)CC4)c(F)cc3F)cc2cn1 [Example 88, 1-(2,4-difluoro-5-(2-methyl-7-(methylamino)-1,6-naphthyridin-3-yl)phenyl)-3-(4,4-difluorocyclohexyl)urea hydrochloride] | – |
| – | – | – | CC(=O)Nc1cc2nc(C)c(-c3cc(NC(=O)NCCC(C)(C)C#N)c(F)cc3F)cc2cn1 [Example 43, N-(3-(5-(3-(3-cyano-3-methylbutyl)ureido)-2,4-difluorophenyl)-2-methyl-1,6-naphthyridin-7-yl)acetamide] | 55% |
| 2 to 96 nM | 0.5-4.9 fold | 9 to 504 nM | CNc1cc2nc(C)c(-c3cc(NC(=O)NCCC4CC4)c(F)cc3C)cc2cn1 [Example 84, 1-(2-cyclopropylethyl)-3-(2-fluoro-4-methyl-5-(2-methyl-7-(methylamino)-1,6-naphthyridin-3-yl)phenyl)urea hydrochloride] | – |
| 2 to 96 nM | 0.5-4.9 fold | 9 to 504 nM | CNc1cc2nc(C)c(-c3cc(NC(=O)NCCC(C)C)c(F)cc3C)cc2cn1 [Example 45, 1-(2-fluoro-4-methyl-5-(2-methyl-7-(methylamino)-1,6-naphthyridin-3-yl)phenyl)-3-isopentylurea] | – |
| 2 to 96 nM | 0.5-4.9 fold | 9 to 504 nM | Cc1cc(F)c(NC(=O)NCCC2(C(F)(F)F)CC2)cc1-c1cc2cnc(N)cc2nc1C [Example 83, 1-(5-(7-amino-2-methyl-1,6-naphthyridin-3-yl)-2-fluoro-4-methylphenyl)-3-(2-(1-(trifluoromethyl)cyclopropyl)ethyl)urea hydrochloride] | – |
| – | – | – | CNc1cc2nc(C)c(-c3cc(NC(=O)NC[C@@H](O)C(C)C)c(F)cc3C)cc2cn1 [Example 75, (S)-1-(2-fluoro-4-methyl-5-(2-methyl-7-(methylamino)-1,6-naphthyridin-3-yl)phenyl)-3-(2-hydroxy-3-methylbutyl)urea] | 89% |
| – | – | – | CC(=O)Nc1cc2nc(C)c(-c3ccc(F)c(NC(=O)NCCC(C)(C)C)c3)cc2cn1 [Example 103, N-(3-(3-(3-(3,3-dimethylbutyl)ureido)-4-fluorophenyl)-2-methyl-1,6-naphthyridin-7-yl)acetamide] | 90% |
| – | – | – | CNc1cc2nc(C)c(-c3cc(NC(=O)NC4CC(C)(C)C4)c(F)cc3F)cc2cn1 [Example 78, 1-(2,4-difluoro-5-(2-methyl-7-(methylamino)-1,6-naphthyridin-3-yl)phenyl)-3-(3,3-dimethylcyclobutyl)urea hydrochloride] | 68% |
| 2 to 96 nM | 0.5-4.9 fold | 9 to 504 nM | CNc1cc2ncc(-c3cc(NC(=O)NCCC(C)(C)F)c(F)cc3C)cc2cn1 [Example 93, 1-(3-fluoro-3-methylbutyl)-3-(2-fluoro-4-methyl-5-(7-(methylamino)-1,6-naphthyridin-3-yl)phenyl)urea] | – |
| – | – | – | CC(=O)Nc1cc2nc(C)c(-c3cc(NC(=O)NCCC(C)(C)C)c(F)cc3F)cc2cn1 [Example 105, N-(3-(5-(3-(3,3-dimethylbutyl)ureido)-2,4-difluorophenyl)-2-methyl-1,6-naphthyridin-7-yl)acetamide] | 87% |
| 2 to 96 nM | 0.5-4.9 fold | 9 to 504 nM | CNc1cc2nc(C)c(-c3cc(NC(=O)NC4CCOC(C)(C)C4)c(F)cc3C)cc2cn1 (stereo not shown) [Example 20, 1-(2,2-dimethyltetrahydro-2H-pyran-4-yl)-3-(2-fluoro-4-methyl-5-(2-methyl-7-(methylamino)-1,6-naphthyridin-3-yl)phenyl)urea hydrochloride] | – |
| 2 to 96 nM | 0.5-4.9 fold | 9 to 504 nM | CNc1cc2nc(C)c(-c3cc(NC(=O)NCC4CC(C)(C)C4)c(F)cc3F)cc2cn1 [Example 13, 1-(2,4-difluoro-5-(2-methyl-7-(methylamino)-1,6-naphthyridin-3-yl)phenyl)-3-((3,3-dimethylcyclobutyl)methyl)urea hydrochloride] | – |
| – | 0.5-4.9 fold | 9 to 504 nM | CNc1cc2nc(C)c(-c3cc(NC(=O)NCC4CCCCC4)c(F)cc3C)cc2cn1 [Example 29, 1-(cyclohexylmethyl)-3-(2-fluoro-4-methyl-5-(2-methyl-7-(methylamino)-1,6-naphthyridin-3-yl)phenyl)urea hydrochloride] | – |
| – | 0.5-4.9 fold | 9 to 504 nM | Cc1nc2cc(NC(=O)C3CC3)ncc2cc1-c1cc(NC(=O)NCCC2CC2)c(F)cc1F [Example 123, N-(3-(5-(3-(2-cyclopropylethyl)ureido)-2,4-difluorophenyl)-2-methyl-1,6-naphthyridin-7-yl)cyclopropanecarboxamid hydrochloride] | – |
| 2 to 96 nM | 0.5-4.9 fold | 9 to 504 nM | CNc1cc2nc(C)c(-c3cc(NC(=O)NCC(O)C(C)(C)C)c(F)cc3C)cc2cn1 (stereo not shown) [Example 55, 1-(2-fluoro-4-methyl-5-(2-methyl-7-(methylamino)-1,6-naphthyridin-3-yl)phenyl)-3-(2-hydroxy-3,3-dimethylbutyl)urea] | – |
| – | 0.5-4.9 fold | 9 to 504 nM | Cc1cc(F)c(NC(=O)NC2CCCCCC2)cc1-c1cc2cnc(N)cc2nc1C [Example 82, 1-(5-(7-amino-2-methyl-1,6-naphthyridin-3-yl)-2-fluoro-4-methylphenyl)-3-cycloheptylurea] | – |
